Data as given in patent US10106526B2, “Inhibitors of cyclin-dependent kinase 7 (CDK7)” (SYROS PHARMACEUTICALS, INC., priority 2014, dated 2018).

Experiments:
CDK7 = target: T1, CDK7 (Homo sapiens, UniProt P50613); experiment: CDK7 kinase activity, Adapta kinase assay (Life Technologies); type: biochemical; conditions: Adapta kinase assay at Life Technologies; 10 μM down to 0.514 nM, 3-fold serial dilutions; read-out: CDK7 Inhibition (IC50)
T1 construct: purchased Life Technologies (Adapta kinase assay service)
T1 sequence (P50613 whole entry): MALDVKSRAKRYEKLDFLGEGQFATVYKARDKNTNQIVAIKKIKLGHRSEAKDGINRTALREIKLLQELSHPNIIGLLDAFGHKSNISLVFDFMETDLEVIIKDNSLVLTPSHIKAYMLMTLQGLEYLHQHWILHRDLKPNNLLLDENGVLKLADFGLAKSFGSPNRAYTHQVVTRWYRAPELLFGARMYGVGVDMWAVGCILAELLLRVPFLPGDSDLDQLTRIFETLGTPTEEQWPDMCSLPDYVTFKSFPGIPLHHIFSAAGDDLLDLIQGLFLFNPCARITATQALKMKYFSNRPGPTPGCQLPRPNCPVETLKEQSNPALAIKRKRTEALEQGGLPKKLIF
T1 sequence (P51946 whole entry partner): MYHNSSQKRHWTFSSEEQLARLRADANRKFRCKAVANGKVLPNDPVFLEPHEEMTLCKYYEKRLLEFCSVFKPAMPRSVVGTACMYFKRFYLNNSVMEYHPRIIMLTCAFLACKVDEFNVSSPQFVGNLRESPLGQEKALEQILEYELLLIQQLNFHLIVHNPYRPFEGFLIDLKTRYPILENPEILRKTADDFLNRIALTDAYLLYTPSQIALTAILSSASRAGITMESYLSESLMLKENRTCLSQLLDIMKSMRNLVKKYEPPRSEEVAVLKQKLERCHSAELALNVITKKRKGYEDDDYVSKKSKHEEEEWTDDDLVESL
T1 sequence (P51948 whole entry partner): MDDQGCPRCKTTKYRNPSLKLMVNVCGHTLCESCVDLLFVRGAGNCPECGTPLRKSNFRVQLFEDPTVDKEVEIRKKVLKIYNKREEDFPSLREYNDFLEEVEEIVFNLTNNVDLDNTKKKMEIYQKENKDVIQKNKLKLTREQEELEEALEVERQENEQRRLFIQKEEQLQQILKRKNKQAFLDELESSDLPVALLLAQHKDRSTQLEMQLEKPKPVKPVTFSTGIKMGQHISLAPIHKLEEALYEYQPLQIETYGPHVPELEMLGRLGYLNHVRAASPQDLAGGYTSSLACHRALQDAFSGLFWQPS
Protocol: Compounds of the invention were assayed for CDK7 activity at Life Technologies™ (Grand Island, N.Y.) using their commercially available Adapta® kinase assay services. Compounds were tested at concentrations ranging from 10 μM down to 0.514 nM in a series of 3-fold serial dilutions. Details of these assays, including substrates used, are available on the Life Technologies web site (http://www.lifetechnologies.com/us/en/home/life-science/drug-discovery/target-and-lead-identification-and-validation/kinasebiology/kinase-activity-assays.html).

A673 cells = experiment: Inhibition of proliferation of A673 cells (CyQUANT, 72 hour); type: cell-based, human; conditions: 72 hour proliferation
Protocol: A673 cells are a cell line derived from human muscle Ewing's sarcoma. Representative compounds of the invention were tested at different concentrations (from 4 μM to 126.4 pM; 0.5 log serial dilutions) for their ability to inhibit the proliferation of A673 cells. Known CDK inhibitors flavopiridol and triptolide were used as positive controls. Cells were grown in Dulbecco's Modified Eagle's Medium, +10% FBS+1 mM Sodium Pyruvate. The cells were cultured at 37° C. in a humidified chamber in the presence of 5% CO2. Proliferation assays were conducted over a 72 hour time period. CyQUANT® (Life Technologies, Chicago, Ill. USA) was used to assess the anti-proliferative effects of the compounds following manufacturer's directions and utilizing the reagents supplied with the CyQUANT® kit. In this table, “A” represents an IC50 of less than 500 nM; “B” an IC50 of between 500 nM and 5 μM; and “C” an IC50 of greater than 5 μM.

Jurkat cells = experiment: Inhibition of proliferation of Jurkat cells (CellTiter-Glo, 72 hour); type: cell-based, human; conditions: 10 μM to 316 pM
Protocol: Jurkat cells are a cell line established from a human T cell leukemia. Representative compounds of the invention were tested at different concentrations (from 10 μM to 316 pM; 0.5 log serial dilutions) for their ability to inhibit the proliferation of Jurkat cells. Known CDK inhibitors flavopiridol and triptolide were used as positive controls. Cells were grown in RPMI 1640+10% FBS+1% Glutamax. The cells were supplemented with FBS (Life Technologies) and 100 U·mL^− penicillin, 100 μg·mL^− streptomycin (Invitrogen) and cultured at 37° C. in a humidified chamber in the presence of 5% CO2. Proliferation assays were conducted over a 72 hour time period. CellTiter-Glo® (Promega Corporation, Madison, Wis. USA) was used to assess the anti-proliferative effects of the compounds following manufacturer's directions and utilizing the reagents supplied with the CellTiter-Glo® kit. In this table, “A” represents an IC50 of less than 500 nM; “B” an IC50 of between 500 nM and 5 μM; and “C” an IC50 of greater than 5 μM.

IC50 (CDK7) | IC50 (Jurkat cells; Homo sapiens) | IC50 (Jurkat cells) | SMILES | IC50 (A673 cells; Homo sapiens) | IC50 (A673 cells)
100 to 1000 nM | > 5000 nM |  | O=C(/C=C/CN1CCOCC1)N1CCC(C(=O)N2CC[C@H](Nc3ncc(Cl)c(-c4c[nH]c5ccccc45)n3)C2)CC1 [Compound 211, (S,E)-1-(4-(3-((5-chloro-4-(1H-indol-3-yl)pyrimidin-2-yl)amino)pyrrolidine-1-carbonyl)piperidin-1-yl)-4-morpholinobut-2-en-1-One] | < 500 nM | 
< 100 nM | > 5000 nM |  | CN(C)C/C=C/C(=O)Nc1cnn(CC2(O)CCC(Nc3ncc(Cl)c(-c4c[nH]c5ccccc45)n3)CC2)c1 (stereo not drawn) [Compound 114, (E)-N-(1-((4-(5-chloro-4-(1H-indol-3-yl)pyrimidin-2-ylamino)-1-hydroxycyclohexyl)methyl)-1H-pyrazol-4-yl)-4-(dimethylamino)but-2-enamide] | > 5000 nM | 
< 100 nM | 500 to 5000 nM |  | C=CC(=O)N1CCCC(CNC2CCC(Nc3ncc(Cl)c(-c4c[nH]c5ccccc45)n3)CC2)C1 (stereo not drawn) [Compound 190, 1-[3-[[[4-[[5-chloro-4-(1H-indol-3-yl)pyrimidin-2-yl]amino]cyclohexyl]amino]methyl]-1-piperidyl]prop-2-en-1-One] | < 500 nM | 
100 to 1000 nM |  | > 5000 nM | C=CC(=O)N1CCC(CNC2CCC(Nc3ncc(Cl)c(-c4c[nH]c5ccccc45)n3)CC2)CC1 (stereo not drawn) [compound 184] |  | > 5000 nM
< 100 nM | < 500 nM |  | C=CC(=O)N[C@@H]1CN[C@H](C(=O)N[C@H]2CCC[C@@H](Nc3ncc(Cl)c(-c4c[nH]c5ccccc45)n3)C2)C1 [Compound 153, (2S,4S)-4-acrylamido-N-((1S,3R)-3-(5-chloro-4-(1H-indol-3-yl)pyrimidin-2-ylamino)cyclohexyl)pyrrolidine-2-carboxamide] | < 500 nM | 
< 100 nM | 500 to 5000 nM |  | CN(C)C/C=C/C(=O)NCCCCC(=O)N1CC[C@@H](Nc2ncc(Cl)c(-c3c[nH]c4ccccc34)n2)C1 [Compound 100, (E)-N-(5-((R)-3-(5-chloro-4-(1H-indol-3-yl)pyrimidin-2-ylamino)pyrrolidin-1-yl)-5-oxopentyl)-4-(dimethylamino)but-2-enamide] |  | 
< 100 nM | < 500 nM |  | C=CC(=O)N1CCCC(CN(C(=O)C=C)C2CCC(Nc3ncc(Cl)c(-c4c[nH]c5ccccc45)n3)CC2)C1 (stereo not drawn) [Compound 191-1, N-[4-[[5-chloro-4-(1H-indol-3-yl)pyrimidin-2-yl]amino]cyclohexyl]-N-[(1-prop-2-enoyl-3-piperidyl)methyl]prop-2-enamide] | 500 to 5000 nM | 
100 to 1000 nM | > 5000 nM |  | C=CC(=O)N1CCC(C(=O)N2CC[C@@H](Nc3ncc(Cl)c(-c4c[nH]c5ccccc45)n3)C2)CC1 [Compound 214, 1-[4-[(3R)-3-[[5-chloro-4-(1H-indol-3-yl)pyrimidin-2-yl]amino]pyrrolidine-1-carbonyl]-1-piperidyl]prop-2-en-1-One] | < 500 nM | 
100 to 1000 nM | 500 to 5000 nM |  | C=CC(=O)N1CCC(C(=O)N2CC[C@H](Nc3ncc(Cl)c(-c4c[nH]c5ccccc45)n3)C2)CC1 [Compound 210, (S)-1-(4-(3-((5-chloro-4-(1H-indol-3-yl)pyrimidin-2-yl)amino)pyrrolidine-1-carbonyl)piperidin-1-yl)prop-2-en-1-One] |  | 
< 100 nM | < 500 nM |  | C=CC(=O)N1CCC(CN(C)[C@H]2CCC[C@@H](Nc3ncc(Cl)c(-c4c[nH]c5ccccc45)n3)C2)CC1 [Compound 167] | < 500 nM | 
< 100 nM |  | 500 to 5000 nM | CN(C)C/C=C/C(=O)N1CC[C@@H](Nc2ncc(Cl)c(-c3c[nH]c4ccccc34)n2)C1 [Compound 176] |  | 
< 100 nM | 500 to 5000 nM |  | O=C(Nc1cccc(Nc2ncc(Cl)c(-c3c[nH]c4ccccc34)n2)c1)C1CCNCC1 [Compound 1006, N-(3-(5-chloro-4-(1H-indol-3-yl)pyrimidin-2-ylamino)phenyl)piperidine-4-carboxamide] |  | 
100 to 1000 nM |  | 500 to 5000 nM | C=CC(=O)N1CCC(NC(=O)N2CCC[C@@H](Nc3ncc(Cl)c(-c4c[nH]c5ccccc45)n3)C2)CC1 [Compound 205] |  | < 500 nM
> 1000 nM | < 500 nM |  | C=CC(=O)NC12CC(C(=O)N[C@H]3CCC[C@@H](Nc4ncc(Cl)c(-c5c[nH]c6ccccc56)n4)C3)(C1)C2 (racemic) [Compound 109, N-[(±)-3-{[5-chloro-4-(1H-indol-3-yl)pyrimidin-2-yl]amino}cyclohexyl]-3-(prop-2-enamido)bicyclo[1.1.1]pentane-1-carboxamide] | < 500 nM | 
< 100 nM | 500 to 5000 nM |  | CN(C)C/C=C/C(=O)N1CCC(C(=O)Nc2cccc(Nc3ncc(Cl)c(-c4c[nH]c5ccccc45)n3)c2)CC1 [Compound 105, (E)-N-(3-(5-chloro-4-(1H-indol-3-yl)pyrimidin-2-ylamino)phenyl)-1-(4-(dimethylamino)but-2-enoyl)piperidine-4-carboxamide] |  | 
100 to 1000 nM |  | < 500 nM | C=CC(=O)N1CCCC(CN[C@H]2CC[C@@H](Nc3ncc(Cl)c(-c4c[nH]c5ccccc45)n3)CC2)C1 (single isomer, unassigned) [compound 195] |  | 
< 100 nM | < 500 nM |  | C=CC(=O)NCCC(=O)N[C@H]1CCC[C@@H](Nc2ncc(Cl)c(-c3c[nH]c4ccccc34)n2)C1 [Compound 172, N-(3-((1S,3R)-3-(5-chloro-4-(1H-indol-3-yl)pyrimidin-2-ylamino)cyclohexylamino)-3-oxopropyl)acrylamide] |  | 
< 100 nM | < 500 nM |  | C=CC(=O)N1CCC(CN2CCC(Nc3ncc(Cl)c(-c4c[nH]c5ccccc45)n3)CC2)CC1 [Compound 141, 1-(4-((4-((5-chloro-4-(1H-indol-3-yl)pyrimidin-2-yl)amino)piperidin-1-yl)methyl)piperidin-1-yl)prop-2-en-1-One] |  | 
< 100 nM | 500 to 5000 nM |  | CN(C)C/C=C/C(=O)N1CCC[C@H](C(=O)Nc2cccc(Nc3ncc(Cl)c(-c4c[nH]c5ccccc45)n3)c2)C1 [Compound 104, (3S,E)-N-(3-(5-chloro-4-(1H-indol-3-yl)pyrimidin-2-ylamino)phenyl)-1-(4-(dimethylamino)but-2-enoyl)piperidine-3-carboxamide] |  | 
< 100 nM | < 500 nM |  | O=C(N[C@@H]1CCC[C@H](Nc2ncc(Cl)c(-c3c[nH]c4ccccc34)n2)C1)C1CCN(C(=O)/C=C/CN2CCOCC2)CC1 [Compound 202-2, N-((1R,3S)-3-((5-chloro-4-(1H-indol-3-yl)pyrimidin-2-yl)amino)cyclohexyl)-1-((E)-4-morpholinobut-2-enoyl)piperidine-4-carboxamide] |  | 
< 100 nM | < 500 nM |  | C=CC(=O)N1CCN(CC2(O)CCC[C@@H](Nc3ncc(Cl)c(-c4c[nH]c5ccccc45)n3)C2)CC1 (single isomer, unassigned) [Compound 187] | < 500 nM | 
100 to 1000 nM |  | > 5000 nM | C=CC(=O)N1CCC(O)(CN(C)[C@H]2CCC[C@@H](Nc3ncc(Cl)c(-c4c[nH]c5ccccc45)n3)C2)CC1 [Compound 225] |  | 
< 100 nM | 500 to 5000 nM |  | CN(C)C/C=C/C(=O)Nc1ccc(C(=O)Nc2cccc(Nc3ncc(Cl)c(-c4c[nH]c5ccccc45)n3)c2)nc1 [Compound 107, (E)-N-(3-(5-chloro-4-(1H-indol-3-yl)pyrimidin-2-ylamino)phenyl)-5-(4-(dimethylamino)but-2-enamido)picolinamide] |  | 
< 100 nM | 500 to 5000 nM |  | CN(C)C/C=C/C(=O)N[C@H]1CC[C@H](C(=O)Nc2cccc(Nc3ncc(Cl)c(-c4c[nH]c5ccccc45)n3)c2)CC1 [Compound 102, (trans,E)-N-(3-(5-chloro-4-(1H-indol-3-yl)pyrimidin-2-ylamino)phenyl)-4-(4-(dimethylamino)but-2-enamido)cyclohexanecarboxamide] |  | 
> 1000 nM |  | > 5000 nM | C=CC(=O)N1CCCC(CN(C(=O)C=C)[C@H]2CC[C@@H](Nc3ncc(Cl)c(-c4c[nH]c5ccccc45)n3)CC2)C1 (single isomer, unassigned) [191-2] |  | 
< 100 nM | < 500 nM |  | C=CC(=O)N1CCN(C[C@@H]2CCC[C@H](Nc3ncc(Cl)c(-c4c[nH]c5ccccc45)n3)C2)CC1 [Compound 204, 1-(4-(((1R,3S)-3-((5-chloro-4-(1H-indol-3-yl)pyrimidin-2-yl)amino)cyclohexyl)methyl)-piperazin-1-yl)prop-2-en-1-One] |  | 
